Data on five molecules can be found in patent US20250313546A1, “NUCLEIC ACID BINDERS” (UNIVERSITY OF STRATHCLYDE, priority 2022, published 2025).

≈ marks a conversion by molar mass, not a printed value.

Experiment [1] has as its system C. albicans (ATCC 90028). The settings on record: Candida albicans, ATCC90028, read-out: MIC99 C. albicans.
Description: (§2) The Minimum Inhibitory Concentration (MIC, at 99% inhibition) of the compounds was determined using the broth microdilution method as recommended by EUCAST (EUCAST Definitive Document E.DEF 9.3.2, Method for the determination of broth dilution minimum inhibitory concentrations of antifungal agents for conidia forming moulds and EUCAST Definitive Document E.DEF 7.3.2 Method for the determination of broth dilution minimum inhibitory concentrations of antifungal agents for yeasts).
For experiment [2], the system named is Rhizopus arrhizus (NEQAS12.35321). The settings on record: read-out: MIC99 Rhizopus arrhizus.
Description: as §2
Experiment [3] deals with Candida glabrata (ACPF3309). The following applies: Nakaseomyces glabratus, read-out: MIC99 Candida glabrata.
Experiment [4] deals with Escherichia coli (ATCC 25922). As to the kind of experiment: Antibacterial MIC, broth microdilution (CLSI). It counts as cell-based. The settings on record: Escherichia coli, ATCC25922; read-out: MIC80 E. coli. Background: Broth dilution looks for growth in wells or tubes with falling amounts of substance.
Experiment [5] deals with Enterococcus faecalis (ATCC 51299). Kind of experiment: Antibacterial MIC, broth microdilution (CLSI). Format: cell-based. The following applies: for MIC80: Enterococcus faecalis, ATCC51299, read-out: MIC80 E. faecalis.
Experiment [6] has as its system A. flavus (CBS 128.202). The following applies: Aspergillus flavus, CBS128, read-out: MIC99 A. flavus.
Description: as §2
Experiment [7] has as its system A. fumigatus A1160 (MFIG001). The following applies: Aspergillus fumigatus, read-out: MIC99 A. fumigatus A1160.
The subject of experiment [8] is Fusarium oxysporum (F7098). The settings on record: read-out: MIC99 Fusarium oxysporum.
Description: as §2
The test system of experiment [9] is Candida auris (H.17.157). The settings on record: for MIC99: Candidozyma auris, read-out: MIC99 Candida auris.
The subject of experiment [10] is PolyAU double stranded RNA. Kind of experiment: Fluorescence intercalator displacement (FID) assay, SYBR-safe probe. The settings on record: 20 μM compound, 30° C., lower % = stronger binding. In short, it runs like this:
(§1)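 Compound at 20 μM mixed with 3.76 ng/mL polyAU dsRNA or salmon genomic dsDNA and 12500-fold diluted SybrSafe in 1 mM phosphate buffer pH 7.4, then heated to 30 °C and fluorescence read. Reduction is expressed as normalised %, with nucleic acid plus probe as maximum and probe alone as minimum.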

The subject of experiment [11] is Genomic double stranded DNA (salmon). Described as above. The settings on record: 20 μM compound, 30° C., lower % = stronger binding. In a few lines: as §1
The test system of experiment [12] is T. equiperdum. Kind of experiment: Resazurin-based (Alamar blue) drug sensitivity assay. The settings on record: Trypanosoma equiperdum, read-out: IC50 T. equiperdum.
Description: (§3) A detailed description of the procedure for evaluating activity against trypanosomes, using an Alamar Blue (resazurin) assay, is described below.
(§4) The bloodstream form (BSF) T. b. brucei s427 (see De Koning, H. P. et al., Mol. Biochem. Parasitol. 2000, 106, 181-185), T. evansi AntTat 3/3 (see Dean, S. et al., Proc. Natl. Acad. Sci. USA, 2013, 110, 14741-14746), and T. equiperdum (see Stewart, M. L. et al., Eukaryot. Cell, 2010, 9, 336-343) were cultured in HMI-9 medium (Life Technologies, Paisley, United Kingdom) supplemented with 10% heat inactivated Foetal Bovine Serum (FBS (PAA Laboratories Linz, Austria)), 14 μL/L β-mercaptoethanol (BDH, Dorset, UK), and 3.0 g/L NaHCO3 (Sigma-Aldrich) and adjusted to pH 7.4. These cell lines were maintained at 37° C. in a humidified, 5% CO2 environment.
(§5) A resazurin-based (Alamar blue) drug sensitivity assay was used to assess and compare the activity of standard trypanocides in the different cell lines investigated (see Gould, M. K. et al., Anal. Biochem., 2008, 382, 87-93). Briefly, 23 doubling dilutions of the test compound of the invention, starting at 100 μM, and a compound-free control were prepared in 100 μL medium in a 96-well white plate (Greiner Bio-one, Frickenhausen, Germany). The cells were adjusted to 2×10^4 cells/mL for T. b. brucei and T. equiperdum; 4×10^4 cells/mL for T. evansi; and 5×10^5 cells/mL for T. congolense in the appropriate medium. 100 μL of the adjusted cells was then added to the wells containing drug dilutions and incubated for 48 h under respective culture condition. Thereafter, 20 μL of 125 mg/mL resazurin sodium dye was added, and the plate was incubated for a further 24 h.
The subject of experiment [13] is Scedosporium prolificans (F2746). The following applies: Lomentospora prolificans, read-out: MIC99 Scedosporium prolificans.
Description: as §2
In experiment [14] the test system is C. neoformans (F10025). The settings on record: Cryptococcus neoformans, read-out: MIC99 C. neoformans.
Experiment [15] concerns Staphylococcus aureus (ATCC 43300). Kind of experiment: Antibacterial MIC, broth microdilution (CLSI). It counts as cell-based. The following applies: for S. aureus Selectivity Indices, Group: SI, IC50 (μM)/MIC80 (μM), HEK293 cytotoxicity, Alkyl Amidines and NH Pyrroles; for MIC80: Staphylococcus aureus, ATCC43300, read-out: MIC80 S. aureus.
The test system of experiment [16] is T. evansi AntTat 3/3. Kind of experiment: Resazurin-based (Alamar blue) drug sensitivity assay. The settings on record: read-out: IC50 T. evansi.
Description: as §3, §4, §5
Experiment [17] has as its system Human rhinovirus (HRV-14). As to the kind of experiment: Viral ToxGlo assay, Hela Ohio cells. Format: cell-based. The following applies: M-HeLa, 72 h.
Experiment [18] deals with SARS-CoV-2 (hCoV-19/Australia/VIC01/2020). As to the kind of experiment: SARS-CoV-2 microplaque inhibition assay in Vero-E6 cells. Format: cell-based. The settings on record: for IC50: Severe acute respiratory syndrome coronavirus 2, Vero C1008, plaque inhibition, Vero-E6 cells, read-out: IC50 SARS-CoV-2.
For experiment [19], the system named is Influenza (H1N1). As to the kind of experiment: Accelerated Viral Neuraminidase Inhibition Assay (AVINA), A549 cells. Format: cell-based. The following applies: Influenza A virus, 72 h.

For `Cn1cc(NC(=O)c2cc(NC(=O)c3ccc(/C=C/c4ccc5nonc5c4)cc3)c[nH]2)cc1C(=O)NCCC(=N)N` [IIIa1, (E)-N-(3-amino-3-iminopropyl)-4-(4-(4-(2-(benzo[c][1,2,5]oxadiazol-5-yl)vinyl)benzamido)-1H-pyrrole-2-carboxamido)-1-methyl-1H-pyrrole-2-carboxamide], the MIC99 (in general, the lowest concentration that inhibits either 99% of growth or 99% of the strains tested, depending on the study) in [1] is 25 to 50 µg/mL (≈ 44.2 to 88.4 µM); in experiment [2], 5 to 25 µg/mL (≈ 8.84 to 44.2 µM); in experiment [3], less than 5 µg/mL; in [6] it was 5 to 25 µg/mL (≈ 8.84 to 44.2 µM); in experiment [7], 5 to 25 µg/mL (≈ 8.84 to 44.2 µM); in experiment [8], 5 to 25 µg/mL (≈ 8.84 to 44.2 µM). The MIC99 in experiment [9] is more than 50 µg/mL; in experiment [13], 5 to 25 µg/mL (≈ 8.84 to 44.2 µM); in experiment [14] it was less than 5 µg/mL. Further, the MIC80 (as a rule, an inhibitory concentration at the 80% level, which refers to growth in some studies and to a panel of isolates in others) in experiment [4] is more than 100 µM; in [5], 5 to 25 µM (≈ 2.83 to 14.1 µg/mL); in experiment [15], less than 5 µM. Besides, in [5] (SI, IC50 (μM)/MIC80 (μM), HEK293 cytotoxicity, Alkyl Amidines and NH Pyrroles), the “E. faecalis Selectivity Indices, Group” value is on record as “B (Group B: 3 < SI <= 5)”. Also, in experiment [10], the “% Normalised Fluorescence with polyAU RNA” value is listed as 18%. Also, in [11], the “% Normalised Fluorescence with gDNA” value is reported as 17%. Moreover, the IC50 in [12] and in experiment [16] was 10 to 100 nM in each case. For the same molecule, in experiment [15], the “S. aureus Selectivity Indices, Group” value is “C (Group C: 5 < SI <= 10)”.
`CN(C)c1ccc(/C=C/c2ccc(C(=O)Nc3c[nH]c(C(=O)Nc4cc(C(=O)NCCC(=N)N)n(C)c4)c3)cn2)cc1` [IIIa5, (E)-N-(5-((5-((3-amino-3-iminopropyl)carbamoyl)-1-methyl-1H-pyrrol-3-yl)carbamoyl)-1H-pyrrol-3-yl)-6-(4-(dimethylamino)styryl)nicotinamide]: the MIC99 is less than 5 µg/mL in experiment [1]; 5 to 25 µg/mL (≈ 8.81 to 44 µM) in [2]; 5 to 25 µg/mL (≈ 8.81 to 44 µM) in experiment [3]; 5 to 25 µg/mL (≈ 8.81 to 44 µM) in experiment [6]; 5 to 25 µg/mL (≈ 8.81 to 44 µM) in [7]; 5 to 25 µg/mL (≈ 8.81 to 44 µM) in [9]. The MIC80 in experiment [4] is more than 100 µM; in [5], 5 to 25 µM (≈ 2.84 to 14.2 µg/mL); in experiment [15], less than 5 µM. In addition, the inhibition (in general, the drop in the measured response relative to a control, in per cent) at 20 µM was more than 50% in [17] and 25 to 50% in [19]. Moreover, the “C. auris Selectivity Indices, Group” value in experiment [9] (SI, IC50 (μM)/MIC99 (μg/mL), HEK293 cytotoxicity, Alkyl Amidines and NH Pyrroles) is reported as “D (Group D SI > 3)”. Besides, the “C. auris Selectivity Index (SI)” value in experiment [9] (SI, IC50 (μM)/MIC99 (μg/mL), HEK293 cytotoxicity, numeric value) is on record as 5. Moreover, in [10], the “% Normalised Fluorescence with polyAU RNA” value is 3%. In [11], the “% Normalised Fluorescence with gDNA” value stood at 11%. Also, the IC50 (as a rule, the concentration that gives 50% inhibition) in experiment [12] was 100 to 1000 nM; in experiment [18] it was less than 2000 nM. For the same molecule, the “SARS-CoV-2 Selectivity Indices, Group” value in experiment [18] (SI, IC50 (μM)/IC50 (μM), HEK293 cytotoxicity, Alkyl Amidines and NH Pyrroles) was “D (Group D: SI > 25)”. Moreover, the “SARS-CoV-2 Selectivity Index (SI)” value in experiment [18] (SI, IC50 (μM)/IC50 (μM), HEK293 cytotoxicity, numeric value) was found to be 39. Moreover, in [15], the “S. aureus Selectivity Indices, Group” value is reported as “C (Group C: 5 < SI <= 10)”.
On to `CN(C)c1ccc(/C=C/c2ccc(C(=O)Nc3cc(C(=O)Nc4c[nH]c(C(=O)NCCN5CCOCC5)c4)n(C)c3)cn2)cc1` [IIIb3, (E)-6-(4-(dimethylamino)styryl)-N-(1-methyl-5-((5-((2-morpholinoethyl)carbamoyl)-1H-pyrrol-3-yl)carbamoyl)-1H-pyrrol-3-yl)nicotinamide], for which the MIC99 in [1] is more than 50 µg/mL; in experiment [2] it was more than 50 µg/mL; in [3] it was more than 50 µg/mL; in experiment [6] it was more than 50 µg/mL; in [7], 25 to 50 µg/mL (≈ 40.9 to 81.9 µM); in experiment [8] it was more than 50 µg/mL. Moreover, the MIC99 in experiment [9], in [13] and in experiment [14] was more than 50 µg/mL in each case. For the same molecule, the MIC80 in experiment [4] is more than 100 µM; in [5], more than 100 µM; in experiment [15], less than 5 µM. For the same molecule, in [10], the “% Normalised Fluorescence with polyAU RNA” value came to 39%. Also, the “% Normalised Fluorescence with gDNA” value in experiment [11] is 31%.
In the case of `C/N=C(/CCNC(=O)c1cc(NC(=O)c2cc(NC(=O)c3ccc(/C=C/c4ccc5nonc5c4)cc3)cn2C)cn1C)NC` [Ia6, 4-(4-((E)-2-(benzo[c][1,2,5]oxadiazol-5-yl)vinyl)benzamido)-1-methyl-N-(1-methyl-5-(((Z)-3-(methylamino)-3-(methylimino)propyl)carbamoyl)-1H-pyrrol-3-yl)-1H-pyrrole-2-carboxamide], the MIC99 is less than 5 µg/mL in experiment [1]; 5 to 25 µg/mL (≈ 8.23 to 41.1 µM) in [2]; less than 5 µg/mL in [3]; less than 5 µg/mL in experiment [6]; less than 5 µg/mL in [7]; less than 5 µg/mL in experiment [8]. Besides, the MIC99 in experiment [9] was more than 50 µg/mL; in experiment [13], less than 5 µg/mL; in experiment [14], less than 5 µg/mL. Besides, the MIC80 in [4] was more than 100 µM; in experiment [5], less than 5 µM; in experiment [15] it was less than 5 µM. The “% Normalised Fluorescence with polyAU RNA” value in experiment [10] is 6%. In experiment [11], the “% Normalised Fluorescence with gDNA” value amounted to 3%.
Take `C/N=C(/CCNC(=O)c1cc(NC(=O)c2cc(NC(=O)c3ccc(/C=C/c4nc5ccccc5s4)cc3)cn2C)cn1C)NC` [Ia11, 4-(4-((E)-2-(benzo[d]thiazol-2-yl)vinyl)benzamido)-1-methyl-N-(1-methyl-5-(((Z)-3-(methylamino)-3-(methylimino)propyl)carbamoyl)-1H-pyrrol-3-yl)-1H-pyrrole-2-carboxamide]: the MIC99 is 5 to 25 µg/mL (≈ 8.03 to 40.1 µM) in [1]; 5 to 25 µg/mL (≈ 8.03 to 40.1 µM) in [2]; less than 5 µg/mL in experiment [3]; 5 to 25 µg/mL (≈ 8.03 to 40.1 µM) in [7]; more than 50 µg/mL in experiment [9]; 5 to 25 µg/mL (≈ 8.03 to 40.1 µM) in experiment [13]. In experiment [14], the MIC99 is less than 5 µg/mL. The figures for the MIC80 in [4], in [5] and in experiment [15] were more than 100 µM, more than 100 µM and 5 to 25 µM (≈ 3.11 to 15.6 µg/mL), respectively. Moreover, the IC50 in experiment [18] is 8000 to 32000 nM.
